The results in this text go back to patent publication EP4703354A1, “COMPOUND AS CCR6 ANTAGONIST, AND PHARMACEUTICAL COMPOSITION AND USE THEREOF” (Wuhan Createrna Science and Technology Co.,Ltd., priority 2023, dated 2024).

For this assay, the target named is T1, human CCR6 (Homo sapiens, UniProt P51684).
T1 construct: expressed in transfected cells; host or cells: HEK293
T1 sequence (P51684 1-374): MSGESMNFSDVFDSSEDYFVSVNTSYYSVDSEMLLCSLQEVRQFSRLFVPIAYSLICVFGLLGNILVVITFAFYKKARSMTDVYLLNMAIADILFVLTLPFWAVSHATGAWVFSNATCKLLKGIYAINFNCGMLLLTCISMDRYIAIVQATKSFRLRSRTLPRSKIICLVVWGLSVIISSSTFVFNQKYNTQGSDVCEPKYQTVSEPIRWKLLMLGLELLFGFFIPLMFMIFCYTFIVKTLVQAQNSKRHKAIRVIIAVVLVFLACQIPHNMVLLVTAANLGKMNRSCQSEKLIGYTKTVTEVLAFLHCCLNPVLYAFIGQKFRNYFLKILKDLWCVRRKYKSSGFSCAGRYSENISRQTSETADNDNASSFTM
As to the kind of experiment: human CCR6 calcium flux activity (FLIPR, HEK293 cells stably expressing human CCR6, CCL20 stimulation). Format: cell-based. The note with it: HEK293 cells stably expressing human CCR6, EC80 human MIP-3 alpha/CCL20; read-out: CCR6 inhibitory activity, IC50. How it is done: The activity of the compounds was evaluated using HEK293 cells stably expressing human CCR6 via the FLIPR platform. A 384-well black cell culture plate (Greiner, 781946) was used, with a seeding density of 20,000 cells/well, and incubated overnight at 37°C in a 5% CO2 incubator. The culture medium in the cell plate wells was removed, and 20 µL of Fluo-4 Direct™ Calcium Assay Buffer (Invitrogen, F10471, Component C), 20 µL of 2× Fluo-4 Direct™ Calcium Assay Reagent (Invitrogen, F10471, Component A) working solution, and 10 µL of 6× test compound working solution were sequentially added to each well. The cell plate was incubated in a 37 °C, 5% CO2 incubator for 50 min, followed by a 10 min incubation at room temperature. Additionally, a 6×EC80 human MIP-3 alpha/CCL20 (MCE, HY-P7262) working solution was prepared. After the incubation was completed, 10 µL/well of the 6×EC80 human MIP-3 alpha/CCL20 working solution was transferred to the cell plate using a FLIPR instrument, and the fluorescence signal changes at an excitation wavelength of 494 nm and an emission wavelength of 516 nm were recorded over 90 seconds. The difference between the maximum fluorescence signal (RFUMax) and the minimum fluorescence signal (RFUMin) was used as the output signal. The compound inhibition rate and the log value of the compound concentration were calculated, and a four-parameter fitting analysis was performed using GraphPad Prism 8 software to obtain the IC50 value of the test compound.
On the technique in general: A change in cytosolic calcium serves as a functional read-out for many receptors and channels.

Structures are written as SMILES.

What is called IC50 is the concentration that inhibits the measured activity by half. Regarding `CN(C)C(=O)c1nccc(Nc2c(N[C@@H](c3ccc(F)c(F)n3)C3(C)CCCC3)c(=O)c2=O)c1O` [compound 024, (R)-4-((2-(((5,6-difluoropyridin-2-yl)(1-methylcyclopentyl)methyl)amino)-3,4-dioxocyclobut-1-en-1-yl)amino)-3-hydroxy-N,N-dimethylpicolinamide], the IC50 is 47.4 nM.

As for `CC(C)N(C)C(=O)c1nccc(Nc2c(N[C@@H](c3ncccc3F)C3(C)CCCC3)c(=O)c2=O)c1O` [compound 026, (R)-4-((2-(((3-fluoropyridin-2-yl)(1-methylcyclopentyl)methyl)amino)-3,4-dioxocyclobut-1-en-1-yl)amino)-3-hydroxy-N-isopropyl-N-methylpicolinamide], the IC50 is 0.7 nM.

`CN(C)C(=O)c1nccc(Nc2c(NC(c3nn(C)c4c3COC4)C3(C)CCCC3)c(=O)c2=O)c1O` (stereo not drawn) [compound 027, 3-hydroxy-N,N-dimethyl-4-((2-(((1-methyl-4,6-dihydro-1H-furo[3,4-c]pyrazol-3-yl)(1-methylcyclopentyl)methyl)amino)-3,4-dioxocyclobut-1-en-1-yl)amino)picolinamide]: the IC50 is 1370 nM.

`Cc1c(C(Nc2c(Nc3ccnc(C(=O)N(C)C)c3O)c(=O)c2=O)C2(C)CCCC2)nn2c1CCC2` (stereo not drawn) [compound 029, 3-hydroxy-N,N-dimethyl-4-((2-(((3-methyl-5,6-dihydro-4H-pyrrolo[1,2-b]pyrazol-2-yl)(1-methylcyclopentyl)methyl)amino)-3,4-dioxocyclobut-1-en-1-yl)amino)picolinamide]: the IC50 was 161 nM.

As to `CN(C)C(=O)c1nccc(Nc2c(NC(C(=O)C3CC3)C3(C)CCCC3)c(=O)c2=O)c1O` (stereo not drawn) [compound 034, 4-((2-((2-cyclopropyl-1-(1-methylcyclopentyl)-2-oxoethyl)amino)-3,4-dioxocyclobut-1-en-1-yl)amino)-3-hydroxy-N,N-dimethylpicolinamide], the IC50 was found to be 887 nM.

On to `CN(C)C(=O)c1nccc(Nc2c(NC(C(=O)C3CCC3)C3(C)CCCC3)c(=O)c2=O)c1O` (stereo not drawn) [compound 035, 4-((2-((2-cyclobutyl-1-(1-methylcyclopentyl)-2-oxoethyl)amino)-3,4-dioxocyclobut-1-en-1-yl)amino)-3-hydroxy-N,N-dimethylpicolinamide], for which the IC50 came out at 820 nM.

With `CN(C)C(=O)c1nccc(Nc2c(N[C@@H](c3ccccc3)C3(C)CCCC3)c(=O)c2=O)c1O` [compound 037, (R)-3-hydroxy-N,N-dimethyl-4-((2-(((1-methylcyclopentyl)(phenyl)methyl)amino)-3,4-dioxocyclobut-1-en-1-yl)amino)picolinamide], the IC50 worked out at 95.8 nM.

Take `CC(C)[C@H](Nc1c(Nc2ccnc(C(=O)N(C)C)c2O)c(=O)c1=O)C1(C)CCCC1` [compound 038, (S)-3-hydroxy-N,N-dimethyl-4-((2-((2-methyl-1-(1-methylcyclopentyl)propyl)amino)-3,4-dioxocyclobut-1-en-1-yl)amino)picolinamide]: the IC50 stood at 113 nM.

With `Cc1c(Cl)ccnc1[C@H](Nc1c(Nc2ccnc(C(=O)N(C)C)c2O)c(=O)c1=O)C1(C)CCCC1` [compound 048, (R)-4-((2-(((4-chloro-3-methylpyridin-2-yl)(1-methylcyclopentyl)methyl)amino)-3,4-dioxocyclobut-1-en-1-yl)amino)-3-hydroxy-N,N-dimethylpicolinamide], the IC50 stood at 60.8 nM.

In the case of `Cc1cncnc1C(Nc1c(Nc2ccnc(C(=O)N(C)C)c2O)c(=O)c1=O)C1(C)CCCC1` (stereo not drawn) [compound 052, 3-hydroxy-N,N-dimethyl-4-((2-(((1-methylcyclopentyl)(5-methylpyrimidin-4-yl)methyl)amino)-3,4-dioxocyclobut-1-en-1-yl)amino)picolinamide], the IC50 is 196 nM.

With `Cc1cccnc1[C@H](Nc1c(Nc2ccnc(C(=O)N3CCOCC3)c2O)c(=O)c1=O)C1(C)CCCC1` [compound 059, (R)-3-((3-hydroxy-2-(morpholine-4-carbonyl)pyridin-4-yl)amino)-4-(((1-methylcyclopentyl)(3-methylpyridin-2-yl)methyl)amino)cyclobut-3-ene-1,2-dione], the IC50 worked out at 13.6 nM.

On to `Cc1cnc([C@H](Nc2c(Nc3ccnc(C(=O)N(C)C)c3O)c(=O)c2=O)C2(C)CCCC2)c(C)c1` [compound 061, (R)-4-((2-(((3,5-dimethylpyridin-2-yl)(1-methylcyclopentyl)methyl)amino)-3,4-dioxocyclobut-1-en-1-yl)amino)-3-hydroxy-N,N-dimethylpicolinamide], for which the IC50 was 152 nM.

On to `Cc1cccnc1[C@H](Nc1c(Nc2ccc(C)c(C(=O)N(C)C)c2O)c(=O)c1=O)C1(C)CCCC1` [compound 103, (R)-2-hydroxy-N,N,6-trimethyl-3-((2-(((1-methylcyclopentyl)(3-methylpyridin-2-yl)methyl)amino)-3,4-dioxocyclobut-1-en-1-yl)amino)benzamide], for which the 50% inhibitory concentration (IC50) came to 73.6 nM.

For `Cc1cccnc1[C@H](Nc1c(Nc2ccc(F)c(C(=O)N(C)C)c2O)c(=O)c1=O)C1(C)CCCC1` [compound 104, (R)-6-fluoro-2-hydroxy-N,N-dimethyl-3-((2-(((1-methylcyclopentyl)(3-methylpyridin-2-yl)methyl)amino)-3,4-dioxocyclobut-1-en-1-yl)amino)benzamide], the IC50 came out at 4 nM.

Turning to `CN(C)C(=O)c1nccc(Nc2c(N[C@@H](C#Cc3ccccn3)C3(C)CCCC3)c(=O)c2=O)c1O` [compound 118, (R)-3-hydroxy-N,N-dimethyl-4-((2-((1-(1-methylcyclopentyl)-3-(pyridin-2-yl)prop-2-yn-1-yl)amino)-3,4-dioxocyclobut-1-en-1-yl)amino)picolinamide], the IC50 worked out at 183 nM.

`Cc1ccc(F)nc1C(Nc1c(Nc2ccnc(C(=O)N(C)C)c2O)c(=O)c1=O)C1(C)CC2CC2C1` (stereo not drawn) [compound 121, 4-((2-(((6-fluoro-3-methylpyridin-2-yl)(3-methylbicyclo[3.1.0]hexan-3-yl)methyl)amino)-3,4-dioxocyclobut-1-en-1-yl)amino)-3-hydroxy-N,N-dimethylpicolinamide]: the IC50 came out at 86.2 nM.

`Cc1cccnc1C(Nc1c(Nc2ccnc(C(=O)N(C)C)c2O)c(=O)c1=O)C1(C)CC2CC2C1` (stereo not drawn) [compound 122, 3-hydroxy-N,N-dimethyl-4-((2-(((3-methylbicyclo[3.1.0]hexan-3-yl)(3-methylpyridin-2-yl)methyl)amino)-3,4-dioxocyclobut-1-en-1-yl)amino)picolinamide]: the IC50 was determined as 181 nM.

With `Cc1cccnc1C(Nc1c(Nc2ccnc(C(=O)N(C)C)c2O)c(=O)c1=O)C1(C)CCC2CC21` (stereo not drawn) [compound 123, 3-hydroxy-N,N-dimethyl-4-((2-(((2-methylbicyclo[3.1.0]hexan-2-yl)(3-methylpyridin-2-yl)methyl)amino)-3,4-dioxocyclobut-1-en-1-yl)amino)picolinamide], the IC50 is 265 nM.
